The results in this text go back to ChEMBL document CHEMBL1201862, “PubChem BioAssay data set” (2004).

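Results reflect a 48-hour exposure of cells in 96-well plates to compound at five concentrations. GI50 marks 50% less growth.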 Calls of active or inactive are those of the source. Cut-off read from the data, not from the text of the source: active = GI50 up to about 1.1 µM and inactive = higher.

Some test systems named below: OVCAR-5; 786-0; CCRF-CEM; MDA-N; LOX IMVI; SK-MEL-5; UACC-257; SNB-75; SNB-19; MOLT-4; K562; NCI-H460; IGROV-1; MDA-MB-231; M14; SW-620; NCI-H226; SR; HCT-116; RXF 393.
What all share (experiment): inhibition of tumour cell growth, NCI panel, 48 h

For `COc1ccc(C2=CC(c3ccc4c(c3)OCO4)c3c(c4ccccc4oc3=O)O2)cc1OC` (stereo not given), the GI50 in the assay on OVCAR-5 was 4.85 µM (inactive); in the assay with 786-0, 1.13 µM (inactive); in the assay with CCRF-CEM it was 2.49 µM (inactive); in the assay with MDA-N it was 0.324 µM (active); in the assay with LOX IMVI it was 1.26 µM (inactive); in the assay with SK-MEL-5 it was 0.766 µM (active). In addition, the GI50 was > 100 µM (inactive) in the assay on UACC-257; 0.51 µM (active) in the assay on SNB-75; 2.53 µM (inactive) in the assay on SNB-19; 3.42 µM (inactive) with MOLT-4; 0.415 µM (active) with K562; 1.09 µM (active) in the assay on NCI-H460. Besides, the GI50 in the assay on IGROV-1 is 0.743 µM (active); with MDA-MB-231, 4.02 µM (inactive); in the assay with M14, 3.54 µM (inactive); with SW-620, 0.933 µM (active); in the assay with NCI-H226 it was 0.546 µM (active); with SR, 0.486 µM (active). Besides, the values for the GI50 in the assay on HCT-116 and with RXF 393 were 0.824 µM (active) and 0.764 µM (active), respectively.
Consider `CCN(CC)Cc1cc(/N=N\c2c(O)ccc3c(/N=N\c4ccc(O)c(CN(CC)CC)c4)c(O)ccc23)ccc1O`, for which the GI50 in the assay with OVCAR-5 was 6.49 µM (inactive); in the assay with 786-0, 1.87 µM (inactive); in the assay on CCRF-CEM it was 2.44 µM (inactive); with MDA-N, 4.8 µM (inactive); with LOX IMVI, 1.59 µM (inactive); in the assay with SK-MEL-5 it was 2.47 µM (inactive). In addition, the GI50 in the assay on UACC-257 is 5.75 µM (inactive); in the assay with SNB-75 it was 6.28 µM (inactive); with SNB-19, 3.86 µM (inactive); in the assay on MOLT-4, 1.13 µM (inactive); in the assay on K562, 2.21 µM (inactive); in the assay with NCI-H460 it was 1.91 µM (inactive). Also, the GI50 in the assay with IGROV-1 was 2.99 µM (inactive); with MDA-MB-231, 2.05 µM (inactive); with M14, 5.4 µM (inactive); in the assay on SW-620 it was 3.29 µM (inactive); in the assay with NCI-H226 it was 4.54 µM (inactive); in the assay with SR, 0.993 µM (active). For the same molecule, the GI50 in the assay on HCT-116 is 1.94 µM (inactive); in the assay with RXF 393, 2.94 µM (inactive).
As to `Cc1ccc(NC(=O)c2cccc(OP(=O)(O)Nc3ccc(C)cc3)c2)cc1`, the GI50 with OVCAR-5 is > 100 µM (inactive); with 786-0, > 100 µM (inactive); in the assay on CCRF-CEM, > 100 µM (inactive); in the assay with MDA-N, 63.5 µM (inactive); in the assay on LOX IMVI, > 100 µM (inactive); with SK-MEL-5 it was > 100 µM (inactive). Also, the GI50 in the assay with UACC-257 was > 100 µM (inactive); with SNB-75 it was 20.2 µM (inactive); in the assay on SNB-19, > 100 µM (inactive); in the assay on MOLT-4 it was 64.6 µM (inactive); in the assay on K562, > 100 µM (inactive); with NCI-H460, > 100 µM (inactive). Moreover, the GI50 is > 100 µM (inactive) in the assay with IGROV-1; 74.1 µM (inactive) in the assay with MDA-MB-231; 33.3 µM (inactive) with M14; > 100 µM (inactive) in the assay on SW-620; > 100 µM (inactive) in the assay with NCI-H226; 32.4 µM (inactive) in the assay on SR. For the same molecule, the GI50 in the assay on HCT-116 and in the assay on RXF 393 was > 100 µM (inactive) in each case.
Turning to `Nc1ccc2c(c1)Nc1c3ccccc3nc3cccc-2c13`, the GI50 is 1.77 µM (inactive) with OVCAR-5; 1.21 µM (inactive) in the assay on 786-0; 3.85 µM (inactive) with CCRF-CEM; 1.42 µM (inactive) with MDA-N; 1.3 µM (inactive) in the assay with LOX IMVI; 1.75 µM (inactive) with SK-MEL-5. In addition, the GI50 with UACC-257 is 2 µM (inactive); in the assay on SNB-75, 1.4 µM (inactive); with SNB-19 it was 1.64 µM (inactive); in the assay with MOLT-4, 0.391 µM (active); with K562 it was 0.416 µM (active); in the assay on NCI-H460, 1.02 µM (active). Also, the GI50 in the assay on IGROV-1 was 1.25 µM (inactive); in the assay on MDA-MB-231 it was 1.35 µM (inactive); in the assay with M14, 2.12 µM (inactive); with SW-620, 0.585 µM (active); in the assay with NCI-H226, 1.62 µM (inactive); with SR, 0.281 µM (active). Besides, the GI50 was 1.48 µM (inactive) in the assay with HCT-116 and 1.64 µM (inactive) in the assay with RXF 393.
